For one assay, the target named is T1, BACE2 (Rattus norvegicus, UniProt Q6IE75).
T1 construct: endogenous cellular BACE2 in the Ins1e rat cell line; endogenous in cells; host or cells: INS-TMEM27 (INS1e-derived rat cell line with doxycycline-inducible full-length human TMEM27)
T1 sequence (Q6IE75 63-514): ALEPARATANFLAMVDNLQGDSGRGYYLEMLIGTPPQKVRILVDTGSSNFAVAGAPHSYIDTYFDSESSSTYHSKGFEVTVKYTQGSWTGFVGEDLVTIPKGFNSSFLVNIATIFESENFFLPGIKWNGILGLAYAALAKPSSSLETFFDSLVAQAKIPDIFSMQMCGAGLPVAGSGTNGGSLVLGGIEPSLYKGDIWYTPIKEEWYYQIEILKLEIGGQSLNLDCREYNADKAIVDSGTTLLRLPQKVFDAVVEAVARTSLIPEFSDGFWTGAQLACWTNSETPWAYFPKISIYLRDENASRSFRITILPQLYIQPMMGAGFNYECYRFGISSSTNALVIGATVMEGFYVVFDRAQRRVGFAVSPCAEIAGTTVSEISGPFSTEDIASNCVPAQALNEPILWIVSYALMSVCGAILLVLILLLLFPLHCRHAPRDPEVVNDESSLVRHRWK
Nature of the assay: Assay for BACE inhibition by measuring cellular TMEM27 cleavage. In kind it is cell-based. To be noted: INS-TMEM27 cells (INS1e-derived), shed human TMEM27 by ELISA; read-out: BACE2 cell act. IC50. An excerpt: The assay uses the principle of inhibition of human TMEM27 cleavage by endogenous cellular BACE2 in the Ins1e rat cell line and shedding from the cell surface into the culture medium, followed by detection in an ELISA assay. Inhibition of BACE2 prevents the cleavage and shedding in a dose-dependent manner.
The stable cell line “INS-TMEM27” represents an INS1e-derived cell line with inducible expression (using the TetOn system) of full-length hTMEM27 in a doxycycline-dependent manner. The cells are cultured throughout the experiment in RPMI1640+ Glutamax (Invitrogen) Penicillin/Streptomycin, 10% Fetal bovine serum, […], […], 100 micrograms/ml G418 and 100 microgram/ml hygromycin and are grown inadherent culture at 37° C. in a standard CO2 cell culture incubator.
INS-TMEM27 cells are seeded in 96-well plates. After 2 days in culture, BACE2 inhibitor is added in a range of concentrations as required by the assay and after a further two hours, doxycycline is added to a final concentration of 500 ng/ml. The cells are incubated for a further 46 hours and the supernatant harvested for detection of shed TMEM27.
An ELISA assay (using a pair of mouse anti-human-TMEM27 antibodies, raised against the extracellular domain of TMEM27) is used for detection of TMEM27 in the culture medium. An EC50 for BACE2 inhibition is calculated using the ELISA readout for each inhibitor concentration with standard curve-fitting software such as XLFit for the Excel spreadsheet program.

A further assay concerns the target T2, BACE1 (Homo sapiens, UniProt P56817).
T2 construct: Human HEK293 cells which are stably transfected with a vector expressing a cDNA of the human APP wt gene (APP695); endogenous in cells; host or cells: HEK293 cells stably transfected with human APP695 (wt)
Briefly: Cellular Aβ-lowering assay a) (Aβ40 ELISA). Type of assay: cell-based. Conditions: cellular assay a): HEK293 cells expressing human APP695, Aβ40 in supernatant by ELISA after 18-20 hrs; read-out: BACE1 cell act. Aβ40 IC50. On the procedure: a) Human HEK293 cells which are stably transfected with a vector expressing a cDNA of the human APP wt gene (APP695) were used to assess the potency of the compounds in a cellular assay. The cells were seeded in 96-well microtiter plates in cell culture medium (Iscove, plus 10% (v/v) fetal bovine serum, glutamine, penicillin/streptomycin) to about 80% confluence and the compounds were added at a 10× concentration in 1/10 volume of medium without FCS containing 8% DMSO (final concentration of DMSO was kept at 0.8% v/v). After 18-20 hrs incubation at 37° C. and 5% CO2 in a humidified incubator the culture supernatant was harvested for the determination of Aβ40 concentrations. 96 well ELISA plates (e.g., Nunc MaxiSorb) were coated with monoclonal antibody which specifically recognize the C-terminal end of Aβ40 (Brockhaus et al., NeuroReport 9, 1481-1486; 1998). After blocking of non-specific binding sites with e.g. 1% BSA and washing, the culture supernatants were added in suitable dilutions together with a horseradish peroxidase-coupled Aβ detection antibody (e.g., antibody 4G8, Senetek, Maryland Heights, Mo.) and incubated for 5 to 7 hrs. Subsequently the wells of the microtiter plate were washed extensively with Tris-buffered saline containing 0.05% Tween 20 and the assay was developed with tetramethylbenzidine/H2O2 in citric acid buffer. After stopping the reaction with one volume of 1N H2SO4 the reaction was measured in an ELISA reader at 450 nm wavelength. The concentrations of Aβ in the culture supernatants were calculated from a standard curve obtained with known amounts of pure Aβ peptide.

Here are results for 21 compounds from patent publication US9079919B2 (HOFFMANN-LA ROCHE INC., priority 2011, dated 2015).

T2 sequence (P56817 46-501): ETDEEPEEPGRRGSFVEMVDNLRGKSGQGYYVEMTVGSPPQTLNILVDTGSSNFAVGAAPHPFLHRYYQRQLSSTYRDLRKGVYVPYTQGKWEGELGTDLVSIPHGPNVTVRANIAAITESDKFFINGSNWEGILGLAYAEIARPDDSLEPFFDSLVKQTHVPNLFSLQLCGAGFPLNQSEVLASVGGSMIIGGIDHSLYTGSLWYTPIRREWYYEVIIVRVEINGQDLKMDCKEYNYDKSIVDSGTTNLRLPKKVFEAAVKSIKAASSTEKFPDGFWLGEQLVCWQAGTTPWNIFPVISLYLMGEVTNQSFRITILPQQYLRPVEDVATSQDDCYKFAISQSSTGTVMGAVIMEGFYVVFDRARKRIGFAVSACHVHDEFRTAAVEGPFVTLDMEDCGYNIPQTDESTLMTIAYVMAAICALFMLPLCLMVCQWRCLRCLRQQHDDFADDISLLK

For `NC1=N[C@@]2(CCOc3ccc(-c4cc(Cl)cc(Cl)c4)cc32)C(F)(F)COC1` [Example 55, (R)-6-(3,5-Dichlorophenyl)-6′,6′-difluoro-6′,7′-dihydro-2′H-spiro[chroman-4,5′-[1,4]oxazepin]-3′-amine], the IC50 stood at 10500 nM at BACE2 and 3830 nM on BACE1.

With `COc1cncc(-c2ccc3c(c2)[C@@]2(CCO3)N=C(N)OCC2(F)F)c1` [Example 22, (R)-5′,5′-difluoro-6-(5-methoxypyridin-3-yl)-5′,6′-dihydrospiro[chroman-4,4′-[1,3]oxazin]-2′-amine], the IC50 at BACE2 stood at 926 nM; on BACE1 it was 2780 nM.

`CC1(C)CC[C@@]2(N=C(N)OCC2(F)F)c2cc(NC(=O)c3ccc(C#N)cn3)ccc21` [Example 14, (R)—N-(2′-Amino-5′,5′-difluoro-4,4-dimethyl-3,4,5′,6′-tetrahydro-2H-spiro[naphthalene-1,4′-[1,3]oxazine]-7-yl)-5-cyanopicolinamide]: the IC50 at BACE2 turned out to be 13000 nM; on BACE1 it was 1110 nM.

Regarding `NC1=N[C@@]2(CCSc3ccc(-c4cncc(Cl)c4)cc32)C(F)(F)CO1` [Example 32, (R)-6′-(5-Chloropyridin-3-yl)-5,5-difluoro-5,6-dihydrospiro[[1,3]oxazine-4,4′-thiochroman]-2-amine], the IC50 came out at 1950 nM at BACE2 and 676 nM on BACE1.

`NC1=N[C@@]2(CCc3ccc(-c4cncc(Cl)c4)cc32)C(F)(F)CO1` [Example 9, (R)-6-(5-Chloropyridin-3-yl)-5′,5′-difluoro-2,3,5′,6′-tetrahydrospiro[indene-1,4′-[1,3]oxazin]-2′-amine]: the IC50 at BACE2 was 3580 nM; at BACE1, 790 nM.

In the case of `NC1=N[C@@]2(CCCc3ccc(-c4cncc(Cl)c4)cc32)C(F)(F)CO1` [Example 1, (R)-7-(5-Chloropyridin-3-yl)-5′,5′-difluoro-3,4,5′,6′-tetrahydro-2H-spiro[naphthalene-1,4′-[1,3]oxazin]-2′-amine], the IC50 at BACE2 turned out to be 543 nM; at BACE1 it was 100 nM.

`N#Cc1ccc(C(=O)Nc2ccc3c(c2)[C@@]2(CCC3)N=C(N)OCC2(F)F)nc1` [Example 13, (R)—N-(2′-Amino-5′,5′-difluoro-3,4,5′,6′-tetrahydro-2H-spiro[naphthalene-1,4′-[1,3]oxazine]-7-yl)-5-cyanopicolinamide]: the half-maximal inhibitory concentration (IC50) turned out to be 116 nM at BACE2 and 5 nM at BACE1.

For `NC1=N[C@@]2(CCOc3ccc(NC(=O)c4ccc(Cl)cn4)cc32)C(F)(F)CO1` [Example 33, (R)—N-(2′-Amino-5′,5′-difluoro-5′,6′-dihydrospiro[chroman-4,4′-[1,3]oxazine]-6-yl)-5-chloropicolinamide], the IC50 on BACE2 worked out at 986 nM; at BACE1, 360 nM.

`NC1=N[C@@]2(CCOc3ccc(-c4cc(Cl)cc(Cl)c4)cc32)C(F)(F)CO1` [Example 20, (R)-6-(3,5-dichlorophenyl)-5′,5′-difluoro-5′,6′-dihydrospiro[chroman-4,4′-[1,3]oxazin]-2′-amine]: the IC50 was determined as 3990 nM on BACE2 and 2020 nM on BACE1.

Regarding `N#Cc1ccc(C(=O)Nc2ccc3c(c2)[C@@]2(CCS3)N=C(N)OCC2(F)F)nc1` [Example 43, (R)—N-(2-Amino-5,5-difluoro-5,6-dihydrospiro[[1,3]oxazine-4,4′-thiochroman]-6′-yl)-5-cyanopicolinamide], the IC50 on BACE2 was 148 nM; on BACE1 it was 10 nM.

`NC1=N[C@@]2(CCc3ccc(-c4ccnc(Cl)c4)cc32)C(F)(F)CO1` [Example 6, (R)-6-(2-Chloropyridin-4-yl)-5′,5′-difluoro-2,3,5′,6′-tetrahydrospiro[indene-1,4′-[1,3]oxazin]-2′-amine]: the IC50 on BACE1 came to 1360 nM.

With `NC1=N[C@@]2(CCOc3ccc(-c4cncc(Cl)c4)cc32)C(F)(F)COC1` [Example 54, (R)-6-(5-Chloropyridin-3-yl)-6′,6′-difluoro-6′,7′-dihydro-2′H-spiro[chroman-4,5′-[1,4]oxazepin]-3′-amine], the IC50 on BACE1 came out at 1160 nM.

In the case of `CC1(C)C[C@@]2(N=C(N)OCC2(F)F)c2cc(NC(=O)c3ccc(C#N)cn3)ccc2O1` [Example 41, (R)—N-(2′-Amino-5′,5′-difluoro-2,2-dimethyl-5′,6′-dihydrospiro[chroman-4,4′-[1,3]oxazine]-6-yl)-5-cyanopicolinamide], at BACE1, the IC50 is 230 nM.

In the case of `N#Cc1cccc(-c2ccc3c(c2)[C@@]2(CC3)N=C(N)OCC2(F)F)c1` [Example 10, (R)-3-(2′-Amino-5′,5′-difluoro-2,3,5′,6′-tetrahydrospiro[indene-1,4′-[1,3]oxazine]-6-yl)benzonitrile], the IC50 at BACE1 turned out to be 960 nM.

With `NC1=N[C@@]2(CCC(F)(F)c3ccc(-c4cncc(F)c4)cc32)C(F)(F)CO1` [Example 4, (R)-4,4,5′,5′-Tetrafluoro-7-(5-fluoropyridin-3-yl)-3,4,5′,6′-tetrahydro-2H-spiro[naphthalene-1,4′-[1,3]oxazin]-2′-amine], the IC50 on BACE1 came out at 5690 nM.

In the case of `N#Cc1cccc(-c2ccc3c(c2)[C@@]2(CC(c4ccccc4)O3)N=C(N)OCC2(F)F)c1` (stereo partly shown) [Example 27], the IC50 at BACE1 amounted to 260 nM.

`NC1=N[C@@]2(CCS(=O)(=O)c3ccc(NC(=O)c4ccc(Cl)cn4)cc32)C(F)(F)CO1` [Example 45, N-[(4R)-2-amino-5,5-difluoro-1′,1′-dioxido-2′,3′,5,6-tetrahydrospiro[1,3-oxazine-4,4′-thiochromen]-6′-yl]-5-chloropyridine-2-carboxamide]: the IC50 on BACE1 turned out to be 6960 nM.

For the compound `NC1=N[C@@]2(CCCc3ccc(NC(=O)c4ccc(Cl)cn4)cc32)C(F)(F)COC1` [Example 48, (R)—N-(3′-Amino-6′,6′-difluoro-3,4,6′,7′-tetrahydro-2H,2′H-spiro[naphthalene-1,5′-[1,4]oxazepine]-7-yl)-5-chloropicolinamide], the half-maximal inhibitory concentration (IC50) at BACE1 turned out to be 450 nM.

For `NC1=N[C@@]2(CC(c3ccccc3)Oc3ccc(NC(=O)c4ccc(C(F)(F)F)cn4)cc32)C(F)(F)COC1` (mixture of isomers) [Example 52, N-((2RS,4R)-3′-Amino-6′,6′-difluoro-2-phenyl-6′,7′-dihydro-2′H-spiro[chroman-4,5′-[1,4]oxazepine]-6-yl)-5-(trifluoromethyl)picolinamide], on BACE1, the IC50 amounted to 3380 nM.

Turning to `NC1=N[C@@]2(CC(c3ccccc3)Oc3ccc(-c4cc(Cl)cc(Cl)c4)cc32)C(F)(F)CO1` (mixture of isomers) [Example 26, (2RS,4R)-6-(3,5-dichlorophenyl)-5′,5′-difluoro-2-phenyl-5′,6′-dihydrospiro[chroman-4,4′-[1,3]oxazin]-2′-amine], on BACE1, the IC50 was 2870 nM.

`N#Cc1ccc(C(=O)Nc2ccc3c(c2)[C@@]2(CC3)N=C(N)OCC2(F)F)nc1` [Example 15, (R)—N-(2′-Amino-5′,5′-difluoro-2,3,5′,6′-tetrahydrospiro[indene-1,4′-[1,3]oxazine]-6-yl)-5-cyanopicolinamide]: the IC50 on BACE1 worked out at 510 nM.
